Test results: patent US20070249561A1, “Pharmacological method for treatment of neuropathic pain” (priority 2006, published 2007)

Assays:
[1] = tested on: spared nerve injury (SNI) model of neuropathic pain in rats; test: Mechanical threshold (von Frey) to hindpaw withdrawal in spared nerve injury (SNI) rats; format: in vivo, rat; conditions: for effect of agonist alone on latency to hindpaw withdrawal (mechanical): 100 μg intrathecal; for effect on behavioral signs of neuropathic pain (mechanical threshold / latency to hindpaw withdrawal): dose series
Description: (§1) Male Sprague-Dawley rats (Charles Rivers Laboratories, Inc) were used, and weighed 280-320 g at the time of surgery and intrathecal catheter implantation, and 340-380 g during pharmacological testing. Animals were housed in individual cages on a 12-hour light/dark cycle starting at 6 a.m., and were given food and water […]. All animal use protocols were approved by the Institutional Animal Care and Use Committee (IACUC) of Tulane University.
(§2) Neuropathic pain was modeled in rats using the spared nerve injury model (“SNI”), which is widely accepted as a model for neuropathic pain. To produce the model, rats were anesthetized with isoflurane (5% induction, then 1.5% maintenance in oxygen). As previously described, an incision was made in the skin at the level of the trifurcation of the left sciatic nerve (Decosterd et al., 2000). The overlying muscles were retracted, exposing the common peroneal, tibial, and sural nerves. The common peroneal and tibial nerves were ligated with 6-0 silk (Ethicon, Somerville, N.J.), and then the knot and adjacent nerve (2 mm) were transected. Care was taken to avoid touching the sural nerve branch. The muscle was then sutured with 4-0 absorbable sutures (Ethicon) and the wound was closed with metal clips.
(§3) At the time of nerve injury, animals were re-anesthetized with isoflurane (Baxter, Deerfield, Ill.), and then placed in a stereotaxic apparatus (Stoelting, Wood Dale, Ill.). As previously described (Malkmus et al., 2004), rats were implanted with polyethylene-10 (PE-10, Clay Adams, Sparks, Md.) intrathecal catheters. Briefly, the animal's head was flexed forward in the stereotaxic apparatus, an incision was made in the skin at the back of the head and neck, and the cisternal membrane was exposed by sharp dissection. The membrane was gently punctured with the tip of a #15 scalpel blade, and the distal end of a 7.5 cm long PE-10 catheter was passed through the opening in the cisternal membrane, into the intrathecal space. The catheter was loosely sutured to subcutaneous tissue, leaving the proximal end external to the animal and accessible to the experimenter, and the skin was then approximated using 4-0 absorbable sutures (Ethicon).
(§4) Following surgery, rats were allowed 7 days to recover prior to drug administration and experimentation. To minimize any effects of animal handling on experimental data, drugs and vehicle (saline, or saline and DMSO) were administered via remote injection. PE-10 tubing, filled with vehicle or drug, was used to connect a Hamilton microsyringe to a 30-gauge microinjector, through which 15-20 μL of vehicle or drug was delivered to the lumbar region of the spinal cord via the intrathecal catheter. Progress of the injection was visually confirmed by observing the movement of a small air bubble within the PE-10 tubing. Injectors were left in place an additional minute after fluid delivery, to minimize backflow within the catheter, and animals were then returned to the testing box.
(§5) All drug solutions were freshly prepared daily. After evaporating methyl acetate solvent under a gentle nitrogen stream, 15-deoxy-Δ^12,14 PGJ2 was reconstituted in isotonic saline (comprising 0.9% sodium chloride in water, also called “normal saline”). Rosiglitazone was diluted to the concentrations indicated in the FIGS. with a solution of 30% dimethylsulfoxide (DMSO) and 70% isotonic saline. 15-deoxy-Δ^12,14 PGJ2, rosiglitazone, BADGE, and DMSO were all obtained from Cayman Chemicals (Ann Arbor, Mich.). As used herein, the term “vehicle” refers to the solvent used to dilute the drugs, and may comprise without limitation, DMSO, saline, and water.
(§6) Data are presented as mean±standard error of the mean (SEM). Differences between means were analyzed by two-way repeated-measures analysis of variance (ANOVA), with drug treatment as the between-subjects variable and time as the repeated measure. […]

[2] = tested on: spared nerve injury (SNI) model of neuropathic pain in rats; test: Cold allodynia (acetone drop, paw withdrawal duration) in SNI rats; format: in vivo, rat
Description: as §1, §2, §3, §4, §5, §6

[3] = tested on: animals subjected to sham SNI surgery; test: Sensory thresholds (mechanical, cold, infrared heat) in rats subjected to sham SNI surgery; format: in vivo, rat; conditions: p>0.05
Protocol: The procedures used to evaluate behavioral signs of mechanical and cold allodynia were essentially the same for rats as they were for mice. Animals were acclimated to a stainless steel grid within individual Plexiglas boxes for 30-60 minutes, and then tested for mechanical allodynia and cold allodynia. In all animals, mechanical allodynia was assessed using von Frey (VF) filaments (Stoelting, Inc), and was done before assessing cold allodynia.
To assess mechanical allodynia, the plantar region of each hind paw was stimulated with an incremental series of 8 different VF hairs (monofilaments of logarithmically varying stiffness). In SNI rats and mice, the stimulus region was localized to the sural innervation territory of the lateral aspect of the plantar hind paw. The 50% withdrawal threshold (“mechanical” threshold) was determined using the up-down method of Dixon, modified by Chaplan et al. (Chaplan et al., 1994). First, an intermediate von Frey monofilament (e.g., for rats, number 4.31 was used, which exerts a force of 2.0 g) was applied perpendicular to the plantar skin, causing a slight bending of the hair. In the event of a positive response (defined as rapid withdrawal of the paw within 6 seconds), a smaller filament was tested. In the event of a negative response, a larger filament was tested. The mechanical threshold is the smallest amount of force required to evoke a positive response. […] In such cases von Frey testing was either terminated, or that data was not included in the final analysis.
Cold allodynia was evaluated by applying a drop of acetone to the plantar paw of control and SNI rats. Acetone was applied via a syringe connected to PE-90 tubing, flared at the tip to a diameter of 3.5 mm. Surface tension maintained the volume of the drop to 10-12 μL. The length of time the animal lifted or shook its paw was recorded. The duration of paw withdrawal was recorded for 30 seconds, and three observations were averaged. […]
(§7) To assess more subtle behavioral effects, we evaluated the effects of rosiglitazone on motor coordination and sensory thresholds in uninjured rats.

[4] = tested on: animals subjected to sham SNI surgery; test: Accelerating rotarod test of motor coordination in sham SNI rats; format: in vivo, rat
Protocol: To evaluate the effect of PPARγ agonists on proprioceptive function, rats were placed on an accelerating rotarod (Stoelting, Wood Dale, III). The rotating rod was subdivided into four compartments for the simultaneous assessment of four animals. Initially rotating at a rate of 4 rpm, the system was adjusted gradually over 10 minutes to a maximum speed of 40 rpm. The time that a rat remained on the rotating rod without falling off was recorded—the rotarod duration. After sham SNI surgery and one day before testing, animals were acclimated to the rotarod for 5-10 trials, yielding average latencies of approximately 3 minutes. On the day of testing, rotarod duration was measured three times prior to drug or vehicle administration, and the times averaged. After drug administration, rotarod duration was measured in triplicate at 60 and 120 minutes from the time of administration, with durations averaged for each time point.
as §7

[5] = tested on: SNI rats; conditions: rat, in vivo

Q: `CN(CCOc1ccc(CC2SC(=O)NC2=O)cc1)c1ccccn1` (stereo not shown) [rosiglitazone, 5-[[4-[2-(methyl-pyridin-2-yl-amino)ethoxy]phenyl]methyl]thiazolidine-2,4-dione] was tested. Which “effect of agonist alone on latency to hindpaw withdrawal (mechanical)” value ([1]; SNI rats) did it give?
A: reduced behavioral signs of neuropathic pain in a reversible manner

Q: And the “dissipation of analgesic effect (mechanical threshold)” value ([1]; intrathecal, SNI rats)?
A: dissipated after four hours

Q: And the “onset of analgesic effect after injection (mechanical threshold)” value ([1]; intrathecal, SNI rats)?
A: ≤ 30 min

Q: What about the “time of peak analgesic effect after injection (mechanical threshold)” value ([1]; intrathecal, SNI rats) of the same compound?
A: about 90 minutes

Q: What about the “effect on behavioral signs of neuropathic pain (mechanical threshold / latency to hindpaw withdrawal)” value ([1]; intrathecal, SNI rats) of the same compound?
A: reduced behavioral signs of neuropathic pain in a dose-dependent and reversible manner

Q: What about the “effect of agonist alone on cold hypersensitivity” value ([2]; 100 μg intrathecal) of the same compound?
A: decreased cold hypersensitivity in a reversible manner

Q: What about the “dissipation of analgesic effects (cold allodynia)” value ([2]; intrathecal) of the same compound?
A: dissipated after four hours

Q: And the “onset of analgesic effects after injection (cold allodynia)” value ([2]; intrathecal)?
A: ≤ 30 min

Q: What about the “time of most pronounced analgesic effects (cold allodynia)” value ([2]; intrathecal) of the same compound?
A: approximately 90 minutes

Q: And the “effect on cold hypersensitivity (paw withdrawal duration after acetone)” value ([2]; intrathecal, dose series)?
A: decreased cold hypersensitivity in a dose-dependent and reversible manner

Q: And the “effect on cold response” value [3]?
A: does not affect

Q: What about the “effect on latency to paw withdrawal response to an infrared heat (IR) stimulus” value [3] of the same compound?
A: does not affect

Q: What about the “effect on mechanical threshold” value [3] of the same compound?
A: does not affect

Q: What about the “effect on motor coordination (rotarod), supra-maximal dose” value ([4]; 1000 μg) of the same compound?
A: reduced motor coordination, but this effect was small, not statistically significant

Q: And the “effect on motor coordination (rotarod)” value ([4]; p>0.05)?
A: does not affect

Q: What about the “gross behavioral changes or other obvious deleterious effects” value [5] of the same compound?
A: neither 15-deoxy-Δ^12,14 PGJ2 nor rosiglitazone produced gross behavioral changes or other obvious deleterious effects

Q: Which “effect of antagonist administered alone on hindpaw withdrawal latency” value ([1]; administered alone, SNI rats) does the source give for `CC(C)(c1ccc(OCC2CO2)cc1)c1ccc(OCC2CO2)cc1` (stereo not shown) [BADGE, bisphenol A diglycidyl ether] here?
A: did not have a significant effect on hindpaw withdrawal latency

Q: And the “ED50, log dose-response curve, block of 15-deoxy-Δ^12,14 PGJ2-induced elevation of mechanical threshold” value ([1]; intrathecal co-administration with 100 μg 15-deoxy-Δ^12,14 PGJ2, 60 minutes after injection, SNI rats)?
A: 11.44 μg

Q: And the “effect of co-administered antagonist on analgesic effects of 15-deoxy-Δ^12,14 PGJ2 (mechanical threshold)” value ([1]; intrathecal co-administration with 100 μg 15-deoxy-Δ^12,14 PGJ2, SNI rats)?
A: eliminated the analgesic effects of 15-deoxy-Δ^12,14 PGJ2

Q: What about the “effect of co-administered antagonist on rosiglitazone analgesia (mechanical hypersensitivity)” value ([1]; intrathecal co-administration with 100 μg rosiglitazone, SNI rats) of the same compound?
A: eliminated the analgesic effects of 100 μg rosiglitazone on mechanical hypersensitivity in a dose-dependent manner

Q: And the “effect of co-administered antagonist on rosiglitazone analgesia (cold hypersensitivity)” value ([2]; intrathecal co-administration with 100 μg rosiglitazone)?
A: dose-dependently eliminated the analgesic effects of rosiglitazone

Q: Which results are given for `CCCCC/C=C/C=C1/C(=O)C=C[C@@H]1CC=CCCCC(=O)O` (stereo in doubt) [15-deoxy-Δ^12,14 PGJ2, (Z)-7-[(1S,5E)-5-[(E)-oct-2-enylidene]-4-oxo-1-cyclopent-2-enyl]hept-5-enoic acid]?
A: effect of agonist alone on latency to hindpaw withdrawal (mechanical) ([1]; SNI rats): increased latency to hindpaw withdrawal; dissipation of analgesic effect (mechanical threshold) ([1]; intrathecal, SNI rats): dissipated after four hours; onset of analgesic effect after injection (mechanical threshold) ([1]; intrathecal, SNI rats): ≤ 30 min; time of peak analgesic effect after injection (mechanical threshold) ([1]; intrathecal, SNI rats): about 60 minutes; ED50, log dose-response curve, mechanical threshold (hindpaw withdrawal) ([1]; intrathecal, SNI rats, 60 minutes after injection): 73.97 μg; effect on behavioral signs of neuropathic pain (mechanical threshold / latency to hindpaw withdrawal) ([1]; intrathecal, SNI rats): reduced behavioral signs of neuropathic pain; gross behavioral changes or other obvious deleterious effects [5]: neither 15-deoxy-Δ^12,14 PGJ2 nor rosiglitazone produced gross behavioral changes or other obvious deleterious effects
